{
  "source": "patent US10668040B2",
  "about": "“Treatment of urea cycle disorders in neonates and infants” (Horizon Therapeutics, LLC, priority 2017, dated 2020)",
  "system": "UCD patients",
  "assay": "Example 3: TEAEs, serious and non-serious adverse events",
  "format": "in vivo",
  "text": "Sixteen newborn infants aged 0 to 27 days, and 10 infants and toddlers aged 28 days to 23 months received RAVICTI Oral Liquid administered just prior to breastfeeding or intake of formula or food. The recommended dosing regimen was 3-6 times per day depending on feeding schedule.\nNumber of Subjects with Treatment-Emergent Adverse Events (TEAEs), Serious TEAEs, Deaths, and Discontinuations Due to TEAEs\nAn adverse event (AE) is any untoward medical occurrence, whether or not the event is considered related to the study drug. A serious AE is any AE that: results in death; is life threatening; requires hospitalization or prolongation of existing hospitalization; results in disability/incapacity; is a congenital anomaly/birth defect; is an important medical event. TEAEs are defined as AEs with an onset date on or after the first dose of study medication until study discontinuation. The Investigator assessed the causal relationship of each TEAE to the study drug as not related, possibly related, or probably related. From the first dose of study treatment through 30 days after the final dose (mean [SD] duration of treatment was 9.13 [6.838] months).",
  "key": {"[1]": {"conditions": "Non-serious adverse events, Age 0 to <2 Months"}},
  "data": [
    {"smiles": "O=C(CCCc1ccccc1)OCC(COC(=O)CCCc1ccccc1)OC(=O)CCCc1ccccc1", "note": "[RAVICTI, benzenebutanoic acid, 1′,1″-(1,2,3-propanetriyl) ester]", "values": [
      {"measurement": "Serious AE Feeding Disorder: Occurrences causally related to treatment/all", "setting": "Age 2 Months to <2 Years", "value": "0/0"},
      {"measurement": "Serious AE Gastroenteritis: Deaths causally related to treatment/all", "setting": "Age 2 Months to <2 Years", "value": "0/0"},
      {"measurement": "Serious AE Gastroenteritis: Occurrences causally related to treatment/all", "setting": "Age 2 Months to <2 Years", "value": "0/1"},
      {"measurement": "Serious AE Hyperammonaemia: Deaths causally related to treatment/all", "setting": "Age 2 Months to <2 Years", "value": "0/0"},
      {"measurement": "Serious AE Hyperammonaemia: Occurrences causally related to treatment/all", "setting": "Age 2 Months to <2 Years", "value": "0/7"},
      {"measurement": "Serious AE Influenza: Deaths causally related to treatment/all", "setting": "Age 2 Months to <2 Years", "value": "0/0"},
      {"measurement": "Serious AE Influenza: Occurrences causally related to treatment/all", "setting": "Age 2 Months to <2 Years", "value": "0/1"},
      {"measurement": "Serious AE Lethargy: Deaths causally related to treatment/all", "setting": "Age 2 Months to <2 Years", "value": "0/0"},
      {"measurement": "Serious AE Lethargy: Occurrences causally related to treatment/all", "setting": "Age 2 Months to <2 Years", "value": "0/0"},
      {"measurement": "Serious AE Medical device site infection: Deaths causally related to treatment/all", "setting": "Age 2 Months to <2 Years", "value": "0/0"},
      {"measurement": "Serious AE Medical device site infection: Occurrences causally related to treatment/all", "setting": "Age 2 Months to <2 Years", "value": "0/0"},
      {"measurement": "Serious AE Meningitis bacterial: Deaths causally related to treatment/all", "setting": "Age 2 Months to <2 Years", "value": "0/0"},
      {"measurement": "Serious AE Meningitis bacterial: Occurrences causally related to treatment/all", "setting": "Age 2 Months to <2 Years", "value": "0/0"},
      {"measurement": "Serious AE Neutropenia: Deaths causally related to treatment/all", "setting": "Age 2 Months to <2 Years", "value": "0/0"},
      {"measurement": "Serious AE Neutropenia: Occurrences causally related to treatment/all", "setting": "Age 2 Months to <2 Years", "value": "0/0"},
      {"measurement": "Serious AE Peritonitis: Deaths causally related to treatment/all", "setting": "Age 2 Months to <2 Years", "value": "0/1"},
      {"measurement": "Serious AE Peritonitis: Occurrences causally related to treatment/all", "setting": "Age 2 Months to <2 Years", "value": "0/1"},
      {"measurement": "Serious AE Pneumatosis intestinalis: Deaths causally related to treatment/all", "setting": "Age 2 Months to <2 Years", "value": "0/1"},
      {"measurement": "Serious AE Pneumatosis intestinalis: Occurrences causally related to treatment/all", "setting": "Age 2 Months to <2 Years", "value": "0/1"},
      {"measurement": "Serious AE Pyrexia: Deaths causally related to treatment/all", "setting": "Age 2 Months to <2 Years", "value": "0/0"},
      {"measurement": "Serious AE Pyrexia: Occurrences causally related to treatment/all", "setting": "Age 2 Months to <2 Years", "value": "0/1"},
      {"measurement": "Serious AE Respiratory syncytial virus infection: Deaths causally related to treatment/all", "setting": "Age 2 Months to <2 Years", "value": "0/0"},
      {"measurement": "Serious AE Rhinovirus infection: Deaths causally related to treatment/all", "setting": "Age 2 Months to <2 Years", "value": "0/0"},
      {"measurement": "Serious AE Status asthmaticus: Deaths causally related to treatment/all", "setting": "Age 2 Months to <2 Years", "value": "0/0"},
      {"measurement": "Serious AE Status asthmaticus: Occurrences causally related to treatment/all", "setting": "Age 2 Months to <2 Years", "value": "0/1"},
      {"measurement": "Serious AE Tracheitis: Deaths causally related to treatment/all", "setting": "Age 2 Months to <2 Years", "value": "0/0"},
      {"measurement": "Serious AE Tracheitis: Occurrences causally related to treatment/all", "setting": "Age 2 Months to <2 Years", "value": "0/0"},
      {"measurement": "Serious AE Upper respiratory tract infection: Deaths causally related to treatment/all", "setting": "Age 2 Months to <2 Years", "value": "0/0"},
      {"measurement": "Serious AE Upper respiratory tract infection: Occurrences causally related to treatment/all", "setting": "Age 2 Months to <2 Years", "value": "0/0"},
      {"measurement": "Serious AE Urinary tract infection: Deaths causally related to treatment/all", "setting": "Age 2 Months to <2 Years", "value": "0/0"},
      {"measurement": "Serious AE Urinary tract infection: Occurrences causally related to treatment/all", "setting": "Age 2 Months to <2 Years", "value": "0/1"},
      {"measurement": "Serious AE Viral infection: Deaths causally related to treatment/all", "setting": "Age 2 Months to <2 Years", "value": "0/0"},
      {"measurement": "Serious AE Viral infection: Occurrences causally related to treatment/all", "setting": "Age 2 Months to <2 Years", "value": "0/2"},
      {"measurement": "Serious AE Viral upper respiratory tract infection: Deaths causally related to treatment/all", "setting": "Age 2 Months to <2 Years", "value": "0/0"},
      {"measurement": "Serious AE Viral upper respiratory tract infection: Occurrences causally related to treatment/all", "setting": "Age 2 Months to <2 Years", "value": "0/1"},
      {"measurement": "Serious AE Vomiting: Deaths causally related to treatment/all", "setting": "Age 2 Months to <2 Years", "value": "0/0"},
      {"measurement": "Serious AE Vomiting: Occurrences causally related to treatment/all", "setting": "Age 2 Months to <2 Years", "value": "0/0"},
      {"measurement": "Agitation, Occurrences (all)", "setting": "[1]", "value": 1},
      {"measurement": "Alanine aminotransferase increased, Occurrences (all)", "setting": "[1]", "value": 1},
      {"measurement": "Amino acid level decreased, Occurrences (all)", "setting": "[1]", "value": 1},
      {"measurement": "Amino acid level increased, Occurrences (all)", "setting": "[1]", "value": 2},
      {"measurement": "Ammonia increased, Occurrences (all)", "setting": "[1]", "value": 1},
      {"measurement": "Anaemia, Occurrences (all)", "setting": "[1]", "value": 3},
      {"measurement": "Angular cheilitis, Occurrences (all)", "setting": "[1]", "value": 2},
      {"measurement": "Anion gap increased, Occurrences (all)", "setting": "[1]", "value": 1},
      {"measurement": "Apnoea, Occurrences (all)", "setting": "[1]", "value": 0},
      {"measurement": "Arthropod bite, Occurrences (all)", "setting": "[1]", "value": 1},
      {"measurement": "Aspartate aminotransferase increased, Occurrences (all)", "setting": "[1]", "value": 1},
      {"measurement": "Blood bicarbonate decreased, Occurrences (all)", "setting": "[1]", "value": 1},
      {"measurement": "Blood urea decreased, Occurrences (all)", "setting": "[1]", "value": 1},
      {"measurement": "Body height below normal, Occurrences (all)", "setting": "[1]", "value": 1},
      {"measurement": "Candida infection, Occurrences (all)", "setting": "[1]", "value": 2},
      {"measurement": "Carbon dioxide decreased, Occurrences (all)", "setting": "[1]", "value": 2},
      {"measurement": "Cardiac disorders (Tachycardia), Occurrences (all)", "setting": "[1]", "value": 1},
      {"measurement": "Catheter site rash, Occurrences (all)", "setting": "[1]", "value": 1},
      {"measurement": "Conjunctivitis, Occurrences (all)", "setting": "[1]", "value": 0},
      {"measurement": "Constipation, Occurrences (all)", "setting": "[1]", "value": 2},
      {"measurement": "Cough, Occurrences (all)", "setting": "[1]", "value": 5},
      {"measurement": "Croup infectious, Occurrences (all)", "setting": "[1]", "value": 2},
      {"measurement": "Dacryostenosis congenital, Occurrences (all)", "setting": "[1]", "value": 0},
      {"measurement": "Decreased appetite, Occurrences (all)", "setting": "[1]", "value": 2},
      {"measurement": "Dehydration, Occurrences (all)", "setting": "[1]", "value": 4},
      {"measurement": "Dermatitis diaper, Occurrences (all)", "setting": "[1]", "value": 6},
      {"measurement": "Device occlusion, Occurrences (all)", "setting": "[1]", "value": 1},
      {"measurement": "Diarrhoea, Occurrences (all)", "setting": "[1]", "value": 6},
      {"measurement": "Drug withdrawal syndrome, Occurrences (all)", "setting": "[1]", "value": 1},
      {"measurement": "Dysphagia, Occurrences (all)", "setting": "[1]", "value": 1},
      {"measurement": "Ear and labyrinth disorders (Excessive cerumen production), Occurrences (all)", "setting": "[1]", "value": 0},
      {"measurement": "Ear infection, Occurrences (all)", "setting": "[1]", "value": 3},
      {"measurement": "Eczema, Occurrences (all)", "setting": "[1]", "value": 2},
      {"measurement": "Eye discharge, Occurrences (all)", "setting": "[1]", "value": 1},
      {"measurement": "Feeding disorder of infancy or early childhood, Occurrences (all)", "setting": "[1]", "value": 1},
      {"measurement": "Flatulence, Occurrences (all)", "setting": "[1]", "value": 3},
      {"measurement": "Gamma-glutamyltransferase increased, Occurrences (all)", "setting": "[1]", "value": 1},
      {"measurement": "Gastroenteritis, Occurrences (all)", "setting": "[1]", "value": 1},
      {"measurement": "Gastrointestinal viral infection, Occurrences (all)", "setting": "[1]", "value": 1},
      {"measurement": "Gastrooesophageal reflux disease, Occurrences (all)", "setting": "[1]", "value": 6},
      {"measurement": "Gross motor delay, Occurrences (all)", "setting": "[1]", "value": 0},
      {"measurement": "Hepatic enzyme increased, Occurrences (all)", "setting": "[1]", "value": 2},
      {"measurement": "Hepatobiliary disorders (Hepatic calcification), Occurrences (all)", "setting": "[1]", "value": 1},
      {"measurement": "Hyperammonaemia, Occurrences (all)", "setting": "[1]", "value": 3},
      {"measurement": "Hypophagia, Occurrences (all)", "setting": "[1]", "value": 1},
      {"measurement": "Immune System Disorders (Seasonal allergy), Occurrences (all)", "setting": "[1]", "value": 0}
    ]}
  ]
}
